Article PMC2690574 (Journal of medicinal chemistry, 2008)
Where two headings read alike, the source gives them in different places.

What was measured:
[1] = tested on: anoxic HT29 cell suspensions; test: Rate constant for metabolic consumption kmet in anoxic single cell suspensions; type: in vitro ADME; settings: scaled to the cell density in MCLs
[2] = One electron reduction potential E; type: physicochemical; settings: anaerobic aqueous solution, pH 7.0, pulse radiolysis
anoxic HT29 tumor tissue = test: Penetration half distance X½ calculated from D and kmet; settings: for EVT based on X½ (in words): compared with TPZ
HT29 cells [3] = test: IC50 assay, 4 h drug exposure under aerobic and anoxic conditions, HT29; type: cell-based; settings: criterion HCR > 20 in the PK/PD model
[4] = calculated using ACD logD, pH 7.4; cited from earlier work
[5] = cited from earlier work; for E(1): one electron reduction potential
[6] = culture medium; cited from earlier work
HT29 MCLs = settings: calculated; cited from earlier work
[7] = side chain, calculated using ACD pKa; cited from earlier work
SiHa cells = settings: cited from earlier work
[8] = tested on: anoxic HT29 cell suspensions; settings: scaled to MCL cell density; cited from earlier work
HT29 cells [9] = settings: read-out: HT29 IC50 hypox; HT29, anoxic; cited from earlier work

Row | SMILES | kmet (first order rate constant for metabolism) [1] [min⁻¹] | E(1) [2] [mV] | other results
1 | Nc1n[n+]([O-])c2cc3c(cc2[n+]1[O-])CCC3 [TTO 3] | 0.47 |  | 
2 | CN(C)CCNc1n[n+]([O-])c2cc3c(cc2[n+]1[O-])CCC3 [TTO 4] | 0.44 | −486 | 
3 | CCN(CC)CCNc1n[n+]([O-])c2cc3c(cc2[n+]1[O-])CCC3 [TTO 5] | 1.08 |  | 
4 | CCCN(CCC)CCNc1n[n+]([O-])c2cc3c(cc2[n+]1[O-])CCC3 [TTO 6] | 1.07 |  | 
5 | [O-][n+]1nc(NCCN2CCCCC2)[n+]([O-])c2cc3c(cc21)CCC3 [TTO 7] | 1.25 |  | 
6 | [O-][n+]1nc(NCCCN2CCOCC2)[n+]([O-])c2cc3c(cc21)CCC3 [TTO 8] | 0.19 |  | 
7 | CN(C)CCNc1n[n+]([O-])c2c3c(ccc2[n+]1[O-])CCC3 [TTO 9] | 0.74 | −480 | 
8 | CCN(CC)CCNc1n[n+]([O-])c2c3c(ccc2[n+]1[O-])CCC3 [TTO 10] | 0.97 |  | 
9 | CCCN(CCC)CCNc1n[n+]([O-])c2c3c(ccc2[n+]1[O-])CCC3 [TTO 11] | 0.73 |  | 
10 | [O-][n+]1nc(NCCN2CCCCC2)[n+]([O-])c2ccc3c(c21)CCC3 [TTO 12] | 1.60 |  | 
11 | [O-][n+]1nc(NCCCN2CCOCC2)[n+]([O-])c2ccc3c(c21)CCC3 [TTO 13] | 0.20 | −510 | 
12 | CC1Cc2cc3c(cc2C1)[n+]([O-])c(NCCN(C)C)n[n+]3[O-] (centres unmarked) [TTO 14] | 1.49 |  | 
13 | CC1Cc2cc3c(cc2C1)[n+]([O-])c(NCCCN1CCOCC1)n[n+]3[O-] (centres unmarked) [TTO 15] | 0.13 |  | 
14 | [O-][n+]1nc(NCCCN2CCOCC2)[n+]([O-])c2cc3c(cc21)CCCC3 [TTO 17] | 0.69 |  | 
15 | CN(C)CCNc1n[n+]([O-])c2c3c(ccc2[n+]1[O-])CCCC3 [TTO 18] | 1.78 |  | 
16 | CN(C)CCNc1n[n+]([O-])c2cc3c(cc2[n+]1[O-])CCCCC3 [TTO 19] | 1.52 | −488 | 
17 | [O-][n+]1nc(NCCCN2CCOCC2)[n+]([O-])c2cc3c(cc21)OCC3 [TTO 21] | 0.20 |  | EVT based on X½ (in words) (anoxic HT29 tumor tissue): predicted to display improved EVT

Row | SMILES | kmet (first order rate constant for metabolism) [1] [min⁻¹] | E(1) [2] [mV] | other results
18 | Nc1n[n+]([O-])c2cc3c(cc2[n+]1[O-])OCC3 [TTO 22] |  |  | hypoxic selectivity (in words) (HT29 cells [3]): failed to pass the criterion for hypoxic selectivity (HCR > 20)
19 | CN(C)CCNc1n[n+]([O-])c2cc3c(cc2[n+]1[O-])OCC3 [TTO 23] | 0.60 | −545 | 
20 | CCN(CC)CCNc1n[n+]([O-])c2cc3c(cc2[n+]1[O-])OCC3 [TTO 24] | 0.26 |  | EVT based on X½ (in words) (anoxic HT29 tumor tissue): predicted to display improved EVT
21 | [O-][n+]1nc(NCCCN2CCOCC2)[n+]([O-])c2cc3c(cc21)CCO3 [TTO 25] | 0.23 |  | EVT based on X½ (in words) (anoxic HT29 tumor tissue): predicted to display improved EVT
22 | CN(C)CCNc1n[n+]([O-])c2c3c(ccc2[n+]1[O-])OCCC3 [TTO 29] | 0.59 |  | 
23 | CCN1Cc2cc3c(cc2C1)[n+]([O-])c(N)n[n+]3[O-] [TTO 31] | 2.20 | −390 | 
24 | CCNc1n[n+]([O-])c2cc3c(cc2[n+]1[O-])CN(C)CC3 [TTO 32] |  | −462 | 
25 | CC1Cc2cc3c(cc2C1)[n+]([O-])c(CCCO)n[n+]3[O-] (centres unmarked) [TTO 33] | 0.24 |  | 
26 | CCc1n[n+]([O-])c2cc3c(cc2[n+]1[O-])CC(CO)C3 (centres unmarked) [TTO 35] | 0.47 | −452 | 
27 | CCc1n[n+]([O-])c2cc3c(cc2[n+]1[O-])CC(CN1CCOCC1)C3 (centres unmarked) [TTO 36] | 0.54 |  | 
28 | [O-][n+]1nc(CCCN2CCOCC2)[n+]([O-])c2cc3c(cc21)CC(CO)C3 (centres unmarked) [TTO 37] | 0.90 | −408 | 
29 | CCc1n[n+]([O-])c2cc3c(cc2[n+]1[O-])CC(CCO)C3 (centres unmarked) [TTO 38] | 0.54 |  | 
30 | CCc1n[n+]([O-])c2cc3c(cc2[n+]1[O-])CC(CCN1CCOCC1)C3 (centres unmarked) [TTO 39] | 0.54 | −431 | X½ (penetration half distance) (anoxic HT29 tumor tissue; anoxic HT29 tumor tissue, from D and kmet): 100 μm
31 | [O-][n+]1nc(CCCN2CCOCC2)[n+]([O-])c2cc3c(cc21)CCO3 [TTO 40] | 0.31 | −468 | 
32 | CCc1n[n+]([O-])c2cc3c(cc2[n+]1[O-])CN(C)CC3 [TTO 41] |  | −344 | 
33 | Nc1n[n+]([O-])c2ccccc2[n+]1[O-] [compound 1, tirapazamine] |  |  | logP7.4 calc [4]: −0.33; E(1) [5]: −456 mV; Sol. [6]: 9 mM
34 | COc1ccc2c(c1)[n+]([O-])c(NCCN(C)C)n[n+]2[O-] [compound 2] |  |  | logP7.4 calc [4]: −0.07; E(1) [5]: −500 mV; lowering of E(1) by 6-OMe substituent ([5]; relative to the 3-dimethylaminoethylamine BTO): 104 mV; D calc (diffusion coefficient in HT29 MCLs) (HT29 MCLs): 2.9 ×10^−7 cm^2s^−1; pKa [7]: 8.5; SiHa HCR (SiHa cells; oxic IC50/hypoxic IC50): 232; IC50 (SiHa cells; read-out: SiHa IC50 hypox, anoxic): 2.9 µM; kmet (first order rate constant for metabolism) [8]: 0.54 min⁻¹; Sol. [6]: 46 mM; IC50 (HT29 cells [9]): 7.7 µM
